Assay results as given in ChEMBL document CHEMBL5303765, “Data for DCP probe BAY-7081” (2023).

What was measured:
[1] = biological target: Nitric oxide synthase, inducible (Mus musculus) (UniProt P29477); experiment: Nitric Oxide Synthetase, Inducible (iNOS) Eurofins Panlabs panel; details: Compound concentration 10.0 uM
[2] = biological target: T1, D(4) dopamine receptor (Homo sapiens) (UniProt P21917); experiment: Dopamine D4.2 Eurofins Panlabs panel; details: Compound concentration 10.0 uM
T1 sequence (whole entry): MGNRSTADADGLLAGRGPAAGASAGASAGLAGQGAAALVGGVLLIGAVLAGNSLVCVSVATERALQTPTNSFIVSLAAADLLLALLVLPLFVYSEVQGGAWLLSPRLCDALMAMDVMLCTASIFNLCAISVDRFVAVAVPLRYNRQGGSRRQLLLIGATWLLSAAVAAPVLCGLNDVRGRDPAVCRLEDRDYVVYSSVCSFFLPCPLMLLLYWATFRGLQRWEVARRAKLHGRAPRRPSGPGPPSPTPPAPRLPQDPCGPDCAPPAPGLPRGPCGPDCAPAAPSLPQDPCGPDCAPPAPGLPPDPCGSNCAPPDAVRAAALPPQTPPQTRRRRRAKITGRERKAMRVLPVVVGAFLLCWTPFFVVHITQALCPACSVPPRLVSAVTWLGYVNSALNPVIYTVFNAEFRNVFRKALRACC

Rattus norvegicus = organism: Rattus norvegicus; experiment: Imidazoline I2, Central Eurofins Panlabs panel; details: Compound concentration 10.0 uM
[3] = biological target: Glutamate NMDA receptor (Rattus norvegicus) (UniProt P35439+Q00959+Q00960+Q00961+Q62645+Q8VHN2+Q9R1M7); experiment: Glutamate, NMDA, Glycine Eurofins Panlabs panel; format: protein-complex assay; details: Compound concentration 10.0 uM
[4] = biological target: Kappa-type opioid receptor (Homo sapiens) (UniProt P41145); experiment: Opiate kappa(OP2, KOP) Eurofins Panlabs panel; details: Compound concentration 10.0 uM
[5] = biological target: Beta-2 adrenergic receptor (Homo sapiens) (UniProt P07550); experiment: Adrenergic beta2 Eurofins Panlabs panel; details: Compound concentration 10.0 uM
[6] = biological target: T2, Serine/threonine-protein kinase ULK3 (Homo sapiens) (UniProt Q6PHR2); experiment: ULK3 SGC Tm panel (DSF); details: for ΔTm: Compound concentration 10.0 uM
T2 sequence (whole entry): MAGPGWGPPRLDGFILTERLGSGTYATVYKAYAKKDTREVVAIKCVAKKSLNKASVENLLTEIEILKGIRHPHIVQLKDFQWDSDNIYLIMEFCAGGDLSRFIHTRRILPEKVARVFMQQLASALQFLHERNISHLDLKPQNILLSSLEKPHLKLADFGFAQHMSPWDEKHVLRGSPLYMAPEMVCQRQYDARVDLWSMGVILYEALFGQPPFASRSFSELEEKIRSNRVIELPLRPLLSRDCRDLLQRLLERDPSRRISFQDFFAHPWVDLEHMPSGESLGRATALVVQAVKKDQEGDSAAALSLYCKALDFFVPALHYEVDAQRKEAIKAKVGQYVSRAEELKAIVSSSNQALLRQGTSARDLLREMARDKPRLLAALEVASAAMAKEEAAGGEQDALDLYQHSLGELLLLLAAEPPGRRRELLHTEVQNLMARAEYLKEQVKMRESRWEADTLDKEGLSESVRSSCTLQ

[7] = biological target: Voltage-gated sodium channel, site 2 (Rattus norvegicus, UniProt F1LQQ7+O08562+O88420+O88457+P04774+P04775+P08104+P15389+P15390+Q62968); experiment: Sodium Channel, Site 2 Eurofins Panlabs panel; format: protein assay; details: compound concentration 10 uM
[8] = biological target: Substance-P receptor (Homo sapiens) (UniProt P25103); experiment: Tachykinin NK1 Eurofins Panlabs panel; details: Compound concentration 10.0 uM
[9] = biological target: T3, Muscarinic acetylcholine receptor M4 (Homo sapiens) (UniProt P08173); experiment: Muscarinic M4 Eurofins Panlabs panel; details: Compound concentration 10.0 uM
T3 sequence (whole entry): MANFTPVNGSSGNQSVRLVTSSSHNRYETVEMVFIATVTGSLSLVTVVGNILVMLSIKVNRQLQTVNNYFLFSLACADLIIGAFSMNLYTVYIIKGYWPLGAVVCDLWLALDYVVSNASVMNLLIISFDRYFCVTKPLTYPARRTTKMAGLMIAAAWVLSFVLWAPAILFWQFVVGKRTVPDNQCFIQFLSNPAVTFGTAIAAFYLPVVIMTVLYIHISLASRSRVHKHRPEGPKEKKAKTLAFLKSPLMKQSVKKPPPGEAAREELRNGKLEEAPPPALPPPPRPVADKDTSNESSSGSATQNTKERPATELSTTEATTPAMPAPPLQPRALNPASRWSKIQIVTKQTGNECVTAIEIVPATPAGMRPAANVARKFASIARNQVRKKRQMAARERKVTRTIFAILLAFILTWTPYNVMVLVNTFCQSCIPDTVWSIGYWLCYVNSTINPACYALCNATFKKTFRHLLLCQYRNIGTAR

[10] = biological target: 5-hydroxytryptamine receptor 2B (Homo sapiens) (UniProt P41595); experiment: Serotonin (5-Hydroxytryptamine) 5-HT2B Eurofins Panlabs panel; details: Compound concentration 10.0 uM
[11] = biological target: D(1A) dopamine receptor (Homo sapiens) (UniProt P21728); experiment: Dopamine D1 Eurofins Panlabs panel; details: Compound concentration 10.0 uM
[12] = biological target: T4, 5-hydroxytryptamine receptor 1A (Homo sapiens) (UniProt P08908); experiment: Serotonin (5-Hydroxytryptamine) 5-HT1A Eurofins Panlabs panel; details: Compound concentration 10.0 uM
T4 sequence (whole entry): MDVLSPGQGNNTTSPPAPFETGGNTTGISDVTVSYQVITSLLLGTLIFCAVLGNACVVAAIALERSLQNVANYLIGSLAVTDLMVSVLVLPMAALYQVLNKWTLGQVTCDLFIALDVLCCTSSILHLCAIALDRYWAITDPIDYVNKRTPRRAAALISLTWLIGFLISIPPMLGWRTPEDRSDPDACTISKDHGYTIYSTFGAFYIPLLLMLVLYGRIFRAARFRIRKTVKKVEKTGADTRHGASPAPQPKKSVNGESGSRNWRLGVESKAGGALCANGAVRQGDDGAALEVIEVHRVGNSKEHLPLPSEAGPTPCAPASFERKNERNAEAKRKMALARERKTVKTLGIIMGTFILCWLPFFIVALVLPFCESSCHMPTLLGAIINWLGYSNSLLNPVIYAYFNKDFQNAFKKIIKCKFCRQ

[13] = biological target: Sodium/potassium-transporting ATPase (Sus scrofa) (UniProt P05027+P05024+D2WKD8+D2WKD7+F1ST41); experiment: ATPase, Na+/K+, Heart, Pig Eurofins Panlabs panel; format: protein-complex assay; details: Compound concentration 10.0 uM
[14] = biological target: GABA B receptor (Rattus norvegicus) (UniProt Q9Z0U4+O88871); experiment: GABAB, Non-Selective Eurofins Panlabs panel; format: protein-complex assay; details: Compound concentration 10.0 uM
[15] = biological target: Thromboxane-A synthase (Homo sapiens) (UniProt P24557); experiment: Thromboxane Synthase Eurofins Panlabs panel; details: concentration not given here
Phosphodiesterase 6 = experiment: 3H-cAMP and 3H-cGMP Scintillation Proximity Assay (PDE6); format: tissue-based, Bos taurus, retina
[16] = biological target: Nicotinic Acetylcholine Receptor (Homo sapiens) (UniProt P02708+P07510+P11230+P17787+P30926+P32297+P43681+Q07001+Q15822+Q9UGM1+Q15825+P30532+Q04844+P36544+Q9GZZ6+Q05901); experiment: Nicotinic Acetylcholine Eurofins Panlabs panel; format: protein-complex assay; details: Compound concentration 10.0 uM
[17] = biological target: High affinity 3',5'-cyclic-AMP phosphodiesterase 7A (Homo sapiens) (UniProt Q13946); experiment: Panlabs assay PDE7A; parameters: compound concentration 10 uM; details: at 10 µM
Sequence of High affinity 3',5'-cyclic-AMP phosphodiesterase 7A (Homo sapiens) (Q13946 whole entry): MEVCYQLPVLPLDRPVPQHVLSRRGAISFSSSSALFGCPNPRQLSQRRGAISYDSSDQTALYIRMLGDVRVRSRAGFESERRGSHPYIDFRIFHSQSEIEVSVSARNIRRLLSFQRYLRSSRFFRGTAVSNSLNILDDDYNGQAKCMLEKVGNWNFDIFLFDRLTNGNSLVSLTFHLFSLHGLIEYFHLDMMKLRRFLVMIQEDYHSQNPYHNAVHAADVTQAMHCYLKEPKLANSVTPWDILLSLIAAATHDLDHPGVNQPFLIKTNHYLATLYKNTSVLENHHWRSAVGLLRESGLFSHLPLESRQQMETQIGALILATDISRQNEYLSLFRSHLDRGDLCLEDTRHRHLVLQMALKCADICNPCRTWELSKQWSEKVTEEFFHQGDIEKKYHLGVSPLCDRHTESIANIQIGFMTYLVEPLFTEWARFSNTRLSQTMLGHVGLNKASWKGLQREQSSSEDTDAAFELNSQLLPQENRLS

Sequence of Substance-P receptor (Homo sapiens) (P25103 whole entry): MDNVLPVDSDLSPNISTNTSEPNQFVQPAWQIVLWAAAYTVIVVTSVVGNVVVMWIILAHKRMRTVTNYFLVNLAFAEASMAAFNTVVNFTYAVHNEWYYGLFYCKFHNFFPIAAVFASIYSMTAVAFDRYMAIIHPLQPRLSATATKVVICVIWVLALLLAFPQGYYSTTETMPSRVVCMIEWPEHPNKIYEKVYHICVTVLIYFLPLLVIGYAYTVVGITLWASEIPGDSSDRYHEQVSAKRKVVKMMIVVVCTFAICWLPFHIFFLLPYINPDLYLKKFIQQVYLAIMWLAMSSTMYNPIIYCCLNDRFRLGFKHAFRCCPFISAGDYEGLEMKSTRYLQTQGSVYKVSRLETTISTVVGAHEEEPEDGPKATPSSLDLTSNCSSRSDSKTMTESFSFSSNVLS
Sequence of Thromboxane-A synthase (Homo sapiens) (P24557 whole entry): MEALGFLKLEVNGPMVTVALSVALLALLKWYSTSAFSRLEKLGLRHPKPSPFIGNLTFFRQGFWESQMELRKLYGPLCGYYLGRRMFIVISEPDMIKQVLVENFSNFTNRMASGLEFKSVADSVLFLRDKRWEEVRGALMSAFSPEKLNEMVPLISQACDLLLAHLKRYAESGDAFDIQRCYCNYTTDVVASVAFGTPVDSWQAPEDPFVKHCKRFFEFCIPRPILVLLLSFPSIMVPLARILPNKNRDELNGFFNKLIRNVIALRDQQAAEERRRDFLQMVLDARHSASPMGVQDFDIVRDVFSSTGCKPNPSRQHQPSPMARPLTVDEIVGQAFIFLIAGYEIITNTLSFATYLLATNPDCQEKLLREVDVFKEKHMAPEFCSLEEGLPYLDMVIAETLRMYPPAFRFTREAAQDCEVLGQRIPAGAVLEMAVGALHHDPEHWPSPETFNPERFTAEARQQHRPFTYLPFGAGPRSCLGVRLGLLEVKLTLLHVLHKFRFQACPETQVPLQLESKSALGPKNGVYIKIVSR
Sequence of Beta-2 adrenergic receptor (Homo sapiens) (P07550 whole entry, looked up): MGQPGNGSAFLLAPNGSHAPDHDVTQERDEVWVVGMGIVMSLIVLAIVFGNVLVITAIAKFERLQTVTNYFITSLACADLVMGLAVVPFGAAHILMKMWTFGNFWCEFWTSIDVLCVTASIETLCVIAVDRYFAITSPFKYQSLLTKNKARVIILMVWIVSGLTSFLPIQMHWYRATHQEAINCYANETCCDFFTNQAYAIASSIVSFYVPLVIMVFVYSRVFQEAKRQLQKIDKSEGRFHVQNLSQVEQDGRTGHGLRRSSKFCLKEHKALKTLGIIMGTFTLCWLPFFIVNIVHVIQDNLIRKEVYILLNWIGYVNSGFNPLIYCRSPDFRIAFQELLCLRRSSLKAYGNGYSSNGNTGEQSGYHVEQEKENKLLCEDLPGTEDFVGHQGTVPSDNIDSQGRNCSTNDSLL
Sequence of D(1A) dopamine receptor (Homo sapiens) (P21728 whole entry): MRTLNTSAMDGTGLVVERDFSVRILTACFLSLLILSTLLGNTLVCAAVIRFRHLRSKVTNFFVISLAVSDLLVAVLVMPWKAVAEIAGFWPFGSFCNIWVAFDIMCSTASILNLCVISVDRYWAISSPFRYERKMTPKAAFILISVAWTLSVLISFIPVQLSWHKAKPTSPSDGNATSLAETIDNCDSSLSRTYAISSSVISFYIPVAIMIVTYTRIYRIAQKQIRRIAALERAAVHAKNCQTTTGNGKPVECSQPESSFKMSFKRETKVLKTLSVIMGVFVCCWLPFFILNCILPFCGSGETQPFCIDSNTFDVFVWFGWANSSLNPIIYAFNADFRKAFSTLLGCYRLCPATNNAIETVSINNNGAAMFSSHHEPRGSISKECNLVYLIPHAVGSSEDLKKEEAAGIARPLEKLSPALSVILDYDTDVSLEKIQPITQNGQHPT
Sequence of Nitric oxide synthase, inducible (Mus musculus) (P29477 whole entry): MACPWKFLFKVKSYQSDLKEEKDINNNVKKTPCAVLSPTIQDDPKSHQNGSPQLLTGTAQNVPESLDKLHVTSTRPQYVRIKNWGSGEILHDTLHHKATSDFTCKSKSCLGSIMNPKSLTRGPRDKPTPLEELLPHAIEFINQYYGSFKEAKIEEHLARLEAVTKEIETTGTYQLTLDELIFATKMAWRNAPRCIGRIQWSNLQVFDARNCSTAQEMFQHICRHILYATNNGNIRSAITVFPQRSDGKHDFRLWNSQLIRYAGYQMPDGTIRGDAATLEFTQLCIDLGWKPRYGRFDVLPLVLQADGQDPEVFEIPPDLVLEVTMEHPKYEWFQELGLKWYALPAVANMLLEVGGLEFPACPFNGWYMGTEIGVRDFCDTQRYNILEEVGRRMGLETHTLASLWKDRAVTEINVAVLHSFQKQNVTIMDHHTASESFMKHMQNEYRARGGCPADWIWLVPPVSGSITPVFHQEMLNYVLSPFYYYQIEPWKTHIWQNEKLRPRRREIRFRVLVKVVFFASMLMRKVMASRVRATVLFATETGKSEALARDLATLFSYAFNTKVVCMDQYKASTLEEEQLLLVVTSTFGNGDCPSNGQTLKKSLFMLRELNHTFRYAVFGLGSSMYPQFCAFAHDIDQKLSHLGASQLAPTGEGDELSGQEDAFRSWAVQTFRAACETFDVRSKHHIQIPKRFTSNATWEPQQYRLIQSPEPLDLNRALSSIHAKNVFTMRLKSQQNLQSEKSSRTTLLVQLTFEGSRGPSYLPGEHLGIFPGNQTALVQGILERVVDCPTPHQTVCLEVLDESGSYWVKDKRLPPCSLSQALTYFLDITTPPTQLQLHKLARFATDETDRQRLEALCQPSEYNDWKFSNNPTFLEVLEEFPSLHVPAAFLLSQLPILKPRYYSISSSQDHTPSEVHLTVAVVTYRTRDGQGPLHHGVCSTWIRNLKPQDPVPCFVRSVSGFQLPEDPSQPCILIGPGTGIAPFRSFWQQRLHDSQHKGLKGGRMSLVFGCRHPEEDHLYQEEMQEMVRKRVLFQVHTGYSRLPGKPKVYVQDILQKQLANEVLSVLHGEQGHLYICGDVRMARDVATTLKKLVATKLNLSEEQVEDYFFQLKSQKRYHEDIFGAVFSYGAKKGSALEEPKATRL
Sequence of Kappa-type opioid receptor (Homo sapiens) (P41145 whole entry): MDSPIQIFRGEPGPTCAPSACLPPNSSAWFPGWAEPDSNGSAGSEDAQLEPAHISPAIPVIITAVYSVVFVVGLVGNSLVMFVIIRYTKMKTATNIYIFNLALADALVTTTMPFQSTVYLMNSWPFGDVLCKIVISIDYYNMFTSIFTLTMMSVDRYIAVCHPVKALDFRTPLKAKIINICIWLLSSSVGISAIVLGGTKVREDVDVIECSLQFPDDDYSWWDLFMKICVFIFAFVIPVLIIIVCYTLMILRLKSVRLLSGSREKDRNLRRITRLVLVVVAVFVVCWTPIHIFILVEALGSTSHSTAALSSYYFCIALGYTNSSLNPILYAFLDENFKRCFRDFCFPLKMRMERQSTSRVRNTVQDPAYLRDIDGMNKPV
Sequence of 5-hydroxytryptamine receptor 2B (Homo sapiens) (P41595 whole entry): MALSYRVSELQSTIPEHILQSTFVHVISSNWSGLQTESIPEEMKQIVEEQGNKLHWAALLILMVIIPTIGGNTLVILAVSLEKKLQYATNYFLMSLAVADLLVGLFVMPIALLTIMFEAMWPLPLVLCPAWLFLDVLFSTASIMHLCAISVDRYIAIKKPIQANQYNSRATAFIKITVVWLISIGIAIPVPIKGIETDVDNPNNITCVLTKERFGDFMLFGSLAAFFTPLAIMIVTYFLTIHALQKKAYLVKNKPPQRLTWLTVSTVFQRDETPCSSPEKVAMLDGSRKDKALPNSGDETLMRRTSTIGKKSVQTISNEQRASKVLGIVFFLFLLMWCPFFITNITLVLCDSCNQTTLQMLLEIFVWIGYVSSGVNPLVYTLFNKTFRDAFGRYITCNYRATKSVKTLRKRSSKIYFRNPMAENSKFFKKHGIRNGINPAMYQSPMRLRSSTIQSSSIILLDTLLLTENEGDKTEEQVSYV

Compound	inhibition [1] [%]	inhibition [2] [%]	inhibition (Rattus norvegicus) [%]	inhibition [3] [%]	inhibition [4] [%]	inhibition [5] [%]	delta Tm Staurosporine positive control [6]	ΔTm [6]	inhibition at 10 µM [7] [%]	inhibition [8] [%]	inhibition [9] [%]	inhibition [10] [%]	inhibition [11] [%]	inhibition [12] [%]	inhibition [13] [%]	inhibition [14] [%]	inhibition [15] [%]	IC50 (Phosphodiesterase 6) [nM]	inhibition [16] [%]	inhibition [17] [%]
CCC[C@H]1CNCc2c1[nH]c(=O)c(C#N)c2N1CCC2(CC1)CC2	6	2	32.5	-2	24.2	-6	19.1	-0.0592	-4	-7	-4	13	1	10	-1	-1	0	1560	5	–
CCC[C@@H]1CNCc2c1[nH]c(=O)c(C#N)c2N1CCC2(CC1)CC2	–	–	–	–	–	–	19.1	-0.0429	–	–	–	–	–	–	–	–	–	–	–	-1.6
